In patent publication US11725015B2, “Macrocyclic compound and uses thereof” (President and Fellows of Harvard College, priority 2017, dated 2023):

What was measured:
[1] = system: HSC-2-Luc orthotopic transplantation (tongue); test: HSC-2 orthotopic transplantation mouse model; type: in vivo, mice; conditions: Q7D×3
[2] = various in vivo models; cited from earlier work
[3] = in comparison with Halichondrin B; cited from earlier work
[4] = not only in vitro but also in vivo; cited from earlier work

In the case of N.N.[Cl][Pt][Cl] [Cisplatin, cisplatin, reference compound], the “ILS (%)” value ([1]; 5 mg/kg intravenously + cetuximab 5 mg/kg) is reported as 150% and the “ILS (%)” value ([1]; 5 mg/kg intravenously, without cetuximab) is reported as 0%.
In the case of C=C1C[C@@H]2CC[C@@]34C[C@@]5(O)O[C@H]6[C@@H](O3)[C@H]3O[C@H](CC[C@@H]3O[C@H]6[C@H]5O4)CC(=O)O[C@@H]3[C@@H](C)[C@@H]4O[C@@H]5C[C@]6(C[C@@H]7O[C@]8(C[C@H](C)[C@@H]9O[C@H]([C@@H](O)C[C@@H](O)CO)C[C@@H]9O8)C[C@H](C)[C@@H]7O6)O[C@@H]5C[C@@H]4O[C@H]3C[C@H]3O[C@@H](CC[C@@H]1O2)C[C@@H](C)C3=C [Halichondrin C], the activity in vivo [2] is listed as “active in various in vivo models” and the “stability in aqueous solution” value [3] is listed as “unstable in aqueous solution”.
In the case of C=C1C[C@@H]2CC[C@@]34C[C@H]5O[C@H]6[C@@H](O3)[C@H]3O[C@H](CC[C@@H]3O[C@H]6[C@H]5O4)CC(=O)O[C@@H]3[C@@H](C)[C@@H]4O[C@@H]5C[C@]6(CC7O[C@@]8(C[C@H](C)C7O6)C[C@H](C)[C@@H]6O[C@H](CC(=O)O)[C@H](O)C[C@@H]6O8)O[C@@H]5CC4O[C@H]3C[C@H]3O[C@@H](CC[C@@H]1O2)C[C@@H](C)C3=C (some centres unmarked) [Norhalichondrin B], the “anti-tumor activity compared with Halichondrin B” value [4] is given as “much weaker than Halichondrin B”.
